Experimental data reported in ChEMBL document CHEMBL2073775, “Caco-2 permeability, P-glycoprotein transport ratios and brain penetration of heterocyclic drugs” (Int J Pharm, 2003).

Target: ATP-dependent translocase ABCB1 (Homo sapiens, UniProt P08183)
Assay: TP_TRANSPORTER: transepithelial transport in Caco-2 cells
Type: functional, cell-based

ATP-dependent translocase ABCB1, sequence (P08183 whole entry): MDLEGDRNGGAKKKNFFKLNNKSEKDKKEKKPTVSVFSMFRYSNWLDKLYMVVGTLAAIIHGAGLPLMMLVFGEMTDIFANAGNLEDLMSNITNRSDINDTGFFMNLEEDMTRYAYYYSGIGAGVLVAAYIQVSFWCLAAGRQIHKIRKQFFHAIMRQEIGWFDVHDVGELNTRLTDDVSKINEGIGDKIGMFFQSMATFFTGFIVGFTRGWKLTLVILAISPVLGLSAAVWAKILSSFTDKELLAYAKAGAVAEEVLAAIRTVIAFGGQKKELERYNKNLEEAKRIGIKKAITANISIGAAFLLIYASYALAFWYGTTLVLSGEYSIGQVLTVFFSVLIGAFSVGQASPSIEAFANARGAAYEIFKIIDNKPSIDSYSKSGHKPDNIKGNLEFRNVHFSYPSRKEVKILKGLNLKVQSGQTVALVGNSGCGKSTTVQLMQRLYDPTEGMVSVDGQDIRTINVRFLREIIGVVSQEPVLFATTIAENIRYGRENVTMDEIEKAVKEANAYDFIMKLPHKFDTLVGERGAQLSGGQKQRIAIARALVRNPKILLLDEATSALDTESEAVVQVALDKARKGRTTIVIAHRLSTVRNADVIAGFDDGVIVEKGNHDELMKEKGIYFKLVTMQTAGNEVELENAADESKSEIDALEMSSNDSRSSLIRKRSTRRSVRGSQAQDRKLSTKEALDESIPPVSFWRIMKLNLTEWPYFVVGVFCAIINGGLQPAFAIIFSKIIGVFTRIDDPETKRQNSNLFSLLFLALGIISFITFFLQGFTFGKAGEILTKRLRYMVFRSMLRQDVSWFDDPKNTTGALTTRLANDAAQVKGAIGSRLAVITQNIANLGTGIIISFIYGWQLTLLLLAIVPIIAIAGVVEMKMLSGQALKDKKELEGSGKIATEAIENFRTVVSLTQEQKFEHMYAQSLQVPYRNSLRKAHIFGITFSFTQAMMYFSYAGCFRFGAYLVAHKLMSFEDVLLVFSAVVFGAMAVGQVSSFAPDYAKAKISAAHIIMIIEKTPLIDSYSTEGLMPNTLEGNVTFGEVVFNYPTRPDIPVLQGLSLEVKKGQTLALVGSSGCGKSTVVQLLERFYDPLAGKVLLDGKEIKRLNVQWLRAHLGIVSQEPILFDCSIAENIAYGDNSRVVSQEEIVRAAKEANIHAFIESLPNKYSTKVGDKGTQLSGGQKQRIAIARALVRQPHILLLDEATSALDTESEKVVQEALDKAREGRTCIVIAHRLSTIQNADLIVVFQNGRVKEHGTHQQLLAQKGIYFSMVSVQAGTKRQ

| Molecule | Activity |
| --- | --- |
| CS(=O)(=O)O.O=C(CCCN1CCC(=C(c2ccc(F)cc2)c2ccc(F)cc2)CC1)N1CCCC1 | substrate [+] |
| CN(C)CCC=C1c2ccccc2CCc2ccccc21 [AMITRIPTYLINE] | substrate [+] |
| COc1cc2cc(C3=NNC(=O)CC3C)sc2cc1OC (configuration not stated) | is not a substrate [-] |
| CC(=O)Oc1ccccc1C(=O)O [ASPIRIN] | is not a substrate [-] |
| COc1ccc2c(c1)c(CC(=O)O)c(C)n2C(=O)c1ccc(Cl)cc1 [INDOMETHACIN] | is not a substrate [-] |
| CC1(C)CC(=O)N(CCCCN2CCN(c3ncccn3)CC2)C(=O)C1O.Cl (configuration not stated) | substrate [+] |
| NC(=O)N1c2ccccc2C=Cc2ccccc21 [CARBAMAZEPINE] | is not a substrate [-] |
| CNC(=C[N+](=O)[O-])NCCSCc1ccc(CN(C)C)o1 [RANITIDINE] | is not a substrate [-] |
| CC1(C)CC(=O)N(CCCCN2CCN(c3ncccn3)CC2)C(=O)C1.Cl [GEPIRONE HYDROCHLORIDE] | substrate [+] |
| C=CCC(N)c1ccccc1-c1noc2ccccc12.Cl (single isomer, unassigned; (-)) | substrate [+] |
| Cc1nc2n(c(=O)c1CCN1CCC(c3noc4cc(F)ccc34)CC1)CCCC2 [RISPERIDONE] | substrate [+] |
| O=C(O)c1ccccc1O [SALICYLIC ACID] | is not a substrate [-] |
| O=C(O)/C=C/C(=O)O.O=C1CCCN1CCCCN1CCN(c2cc(C(F)(F)F)ccn2)CC1 | substrate [+] |
| CN1CCC(=C(c2ccc(F)cc2)c2cc(Cl)cs2)CC1 | substrate [+] |
| Clc1cccc(Cl)c1N=C1NCCN1 [CLONIDINE] | substrate [+] |
| Cc1cc(=O)n(-c2ccccc2)n1C [ANTIPYRINE] | is not a substrate [-] |
| CC(=O)Nc1ccc(O)cc1 [ACETAMINOPHEN] | is not a substrate [-] |
| PEG 4000 | is not a substrate [-] |
| CN1CC2c3ccccc3Oc3ccc(Cl)cc3C2C1.O=C(O)/C=C\C(=O)O (racemic) [ASENAPINE MALEATE] | substrate [+] |
| OC[C@@H](O)[C@@H](O)[C@H](O)[C@H](O)CO [MANNITOL] | is not a substrate [-] |
| Cl.FC(F)(F)c1ccc(N2CCNCC2)nc1Cl | substrate [+] |
| CC(C)Cc1ccc(C(C)C(=O)O)cc1 (configuration not stated) [IBUPROFEN] | is not a substrate [-] |
